Data as given in US20260034138A1, “NOVEL PYRIMIDINYL AND TRIAZINYL SULFONAMIDE DERIVATIVES” (Hoffmann-La Roche Inc., priority 2022, published 2026).

Test system: not listed separately
Test: Microsome Clearance Assay
Type: in vitro ADME
Conditions: human microsomes 0.5 mg/mL plus NADPH, 37° C., test compound 1 microM final
Protocol: Microsome Clearance Assay Protocol:
Incubations at a test compound of 1 mM in microsomes (0.5 mg/mL) plus cofactor NADPH are performed in 96 well plates at 37° C. on a TECAN (Tecan Group Ltd, Switzerland) automated liquid handling system. The final concentration of the test compound in the incubation is 1 microM. After a 10 minutes preincubation step of the test compound with the microsomes, the enzymatic reaction is started by the addition of cofactors. At 1, 3, 6, 9, 15, 25, 35 and 45 minutes, aliquots of the incubations are removed and quenched with 1:3 (v/v) acetonitrile containing internal standards. Samples are then cooled and centrifuged before analysis of the supernatant by LC-MS/MS.
Reference compounds were tested against exemplified compounds for their Microsome Clearance to evaluate metabolite stability.

In order of falling microsomal CLint at 1 microM:
1. COc1nc(OCC(F)F)c(F)cc1NS(=O)(=O)c1c[nH]c2nc(Cl)ccc12 [RE-A, 6-chloro-N-[6-(2,2-difluoroethoxy)-5-fluoro-2-methoxy-3-pyridyl]-1H-pyrrolo[2,3-b]pyridine-3-sulfonamide, reference compound]  41 µL/min/mg
2. COc1nc(OCC(F)F)ncc1NS(=O)(=O)c1c[nH]c2nc(Cl)ccc12 [Example 4, 6-chloro-N-[2-(2,2-difluoroethoxy)-4-methoxy-pyrimidin-5-yl]-1H-pyrrolo[2,3-b]pyridine-3-sulfonamide]  10 µL/min/mg
3. COc1nc(NS(=O)(=O)c2c[nH]c3cc(Cl)ccc23)nnc1CC(F)F [Example 12, 6-chloro-N-[6-(2,2-difluoroethyl)-5-methoxy-1,2,4-triazin-3-yl]-1H-indole-3-sulfonamide]  10 µL/min/mg

Target: human GPR17 short isoform (Homo sapiens, UniProt Q13304)
Test: GPR17 cAMP assay (hGPR17 cAMP)
Type: cell-based
Conditions: CHO-K1 cells stably expressing human GPR17 short isoform; antagonist mode vs EC80 of MDL29,951; forskolin 15 μM; TR-FRET cAMP
Protocol: GPR17 cAMP Assay Protocol:
CHO-K1 cells stably expressing vector containing untagged human GPR17 short isoform (Roche) were cultured at 37° C./5% CO2 in DMEM (Dulbecco's Modified Eagle Medium): F-12 (1:1) supplemented with 10% foetal bovine serum and 400 μg/ml Geneticin.
Changes in intracellular cyclic adenosine monophosphate (cAMP) levels were quantified using the Nano-TRF Detection Assay kit (Roche Diagnostics, Cat. No. 05214386001). This assay allows for direct cAMP quantification in a homogeneous solution. cAMP is detected based on time-resolved fluorescence energy transfer (TR-FRET) and competitive binding of ruthenylated cAMP and endogenous cAMP to an anti-cAMP monoclonal antibody labeled with AlexaFluor-700. The Ruthenium complex serves as the FRET donor and transfers energy to AlexaFluor-700. The FRET signal is inversely proportional to the CAMP concentration.
CHO-GPR17S cells were detached with Accutase and resuspended in assay buffer consisting of Hank's Balanced Salt Solution (HBSS), 10 mM HEPES (4-(2-hydroxyethyl) piperazine-1-ethanesulfonic acid solution) and 0.1% bovine serum albumin (pH 7.4). The cells were seeded in black 384-well plates (Corning) at a density of 10'000 cells/20 μl assay buffer until the addition of compounds.
Test antagonist compounds were serially diluted in dimethyl sulfoxide (DMSO) and spotted in 384-well plates. The compounds were then diluted in HBSS buffer supplemented with an EC80 concentration of MDL29,951 (3-(2-Carboxy-4,6-dichloroindol-3-yl) propionic acid) (GPR17 agonist) plus 3-Isobutyl-1-methylxanthine (IBMX) (0.5 mM final concentration) and added to the cells at room temperature. Forskolin (15 μM final concentration) was added 5 minutes after the test compounds and the cells were incubated at room temperature for 30 minutes. The assay was stopped by adding cAMP detection mix (containing detergents for cell lysis) for 90 minutes at room temperature.
Cellular cAMP was measured using a Paradigm reader (Molecular Devices). The raw data was used to calculate the FRET signal based on the assay's P-factor as per cAMP kit instructions. The data was normalized to the maximal activity of a reference antagonist and dose response curves were fitted to the percent activity of the test compounds using a sigmoidal dose response model (Genedata Screener).
Results in the hGPR17 cAMP assay are provided for compounds of formula I in Table 1

Sequence of human GPR17 short isoform (Q13304 29-367): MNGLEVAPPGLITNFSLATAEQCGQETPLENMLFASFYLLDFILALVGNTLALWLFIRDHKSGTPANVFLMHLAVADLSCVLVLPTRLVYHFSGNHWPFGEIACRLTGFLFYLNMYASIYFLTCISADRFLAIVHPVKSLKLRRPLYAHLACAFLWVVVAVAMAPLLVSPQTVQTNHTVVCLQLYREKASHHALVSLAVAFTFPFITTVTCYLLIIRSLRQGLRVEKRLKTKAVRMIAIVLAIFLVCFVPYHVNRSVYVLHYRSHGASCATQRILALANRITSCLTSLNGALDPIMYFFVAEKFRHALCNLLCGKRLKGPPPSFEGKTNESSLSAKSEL

In order of falling IC50:
1. COc1nc(NS(=O)(=O)c2c[nH]c3cc(Cl)ccc23)nnc1C [Example 13, 6-chloro-N-(5-methoxy-6-methyl-1,2,4-triazin-3-yl)-1H-indole-3-sulfonamide]  5220 nM
2. O=S(=O)(Nc1cnc(Cl)nc1Cl)c1c[nH]c2cc(Cl)ccc12 [Example 6, 6-chloro-N-(2,4-dichloropyrimidin-5-yl)-1H-indole-3-sulfonamide]  1190 nM
3. COc1nc(NS(=O)(=O)c2c[nH]c3cc(Cl)ccc23)nnc1CC(F)F [Example 12, 6-chloro-N-[6-(2,2-difluoroethyl)-5-methoxy-1,2,4-triazin-3-yl]-1H-indole-3-sulfonamide]  908 nM
4. CCCc1ncc(NS(=O)(=O)c2c[nH]c3cc(Cl)ccc23)c(OC)n1 [Example 1, 6-chloro-N-(4-methoxy-2-propyl-pyrimidin-5-yl)-1H-indole-3-sulfonamide]  772 nM
5. COc1nc(OCCF)ncc1NS(=O)(=O)c1c[nH]c2cc(Cl)ccc12 [Example 7, 6-chloro-N-(2-(2-fluoroethoxy)-4-methoxypyrimidin-5-yl)-1H-indole-3-sulfonamide]  727 nM
6. CCc1ncc(NS(=O)(=O)c2c[nH]c3cc(Cl)ccc23)c(OC)n1 [Example 2, 6-chloro-N-(2-ethyl-4-methoxy-pyrimidin-5-yl)-1H-indole-3-sulfonamide]  637 nM
7. COc1nc(OCC(F)F)ncc1NS(=O)(=O)c1c[nH]c2nc(Cl)ccc12 [Example 4, 6-chloro-N-[2-(2,2-difluoroethoxy)-4-methoxy-pyrimidin-5-yl]-1H-pyrrolo[2,3-b]pyridine-3-sulfonamide]  460 nM
8. COc1nc(OCC(F)F)ncc1NS(=O)(=O)c1c[nH]c2cc(C(F)(F)F)ccc12 [Example 11, N-[2-(2,2-difluoroethoxy)-4-methoxy-pyrimidin-5-yl]-6-(trifluoromethyl)-1H-indole-3-sulfonamide]  347 nM
9. O=S(=O)(Nc1cnc(OCC(F)F)nc1OC(F)F)c1c[nH]c2cc(Cl)ccc12 [Example 5, 6-chloro-N-[2-(2,2-difluoroethoxy)-4-(difluoromethoxy)pyrimidin-5-yl]-1H-indole-3-sulfonamide]  174 nM
10. COc1nc(OCC(F)F)ncc1NS(=O)(=O)c1c[nH]c2nc(Br)ccc12 [Example 10, 6-bromo-N-[2-(2,2-difluoroethoxy)-4-methoxy-pyrimidin-5-yl]-1H-pyrrolo[2,3-b]pyridine-3-sulfonamide]  167 nM
11. COc1nc(OC(F)F)ncc1NS(=O)(=O)c1c[nH]c2cc(Cl)ccc12 [Example 3, 6-chloro-N-[2-(difluoromethoxy)-4-methoxy-pyrimidin-5-yl]-1H-indole-3-sulfonamide]  159 nM
12. COc1nc(OCC(F)F)ncc1NS(=O)(=O)c1c[nH]c2cc(Cl)ccc12 [Example 8, 6-chloro-N-(2-(2,2-difluoroethoxy)-4-methoxypyrimidin-5-yl)-1H-indole-3-sulfonamide]  121 nM
13. COc1nc(OCC(F)F)ncc1NS(=O)(=O)c1c[nH]c2cc(Br)ccc12 [Example 9, 6-bromo-N-[2-(2,2-difluoroethoxy)-4-methoxy-pyrimidin-5-yl]-1H-indole-3-sulfonamide]  53 nM
